Results published in ChEMBL document CHEMBL2401728, “An unexpected Dimroth rearrangement leading to annelated thieno[3,2-d][1,2,3]triazolo[1,5-a]pyrimidines with potent antitumor activity” (Eur J Med Chem, 2013).

Tested on: SK-OV-3
Test: Cytotoxicity against human SKOV3 cells assessed as cellular growth at 10 uM after 48 hrs by SRB assay relative to control
Assay type: functional

With `O=C(O)CCCn1c2c(sc3ccccc32)c(=O)n2nnc(-c3ccccc3)c12` as the compound, how does the Activity read?
Its Activity is 90.82%.
